Molecule `COC(=O)c1ccc(Oc2ccc(NC(=O)Nc3ccc(Cl)c(C(F)(F)F)c3)cc2)cn1` [Entry 55, N-(4-chloro-3-(trifluoromethyl)phenyl)-N′-(4-(2-(methoxycarbonyl)-5-pyridyloxy)phenyl) urea] has a melting point of 228 to 230 °C.

Source: patent US20030207872A1, “OMEGA-CARBOXYARYL SUBSTITUTED DIPHENYL UREAS AS RAF KINASE INHIBITORS” (BAYER CORPORATION, priority 2002, published 2003)
